In patent publication US7858349B2, “Anti-cancer compounds” (The Regents of the University of Colorado, priority 1999, dated 2010):

system: SCLC strain SHP-77; experiment: MTT assay for cell survival, SCLC SHP-77 in vitro; assay type: cell-based, human; conditions: ED50 for killing of SCLC strain SHP-77 in vitro, 4 days, 0 = no detectable activity, read-out: SCLC SHP-77 IC50

| SMILES | IC50 |
| --- | --- |
| O=C(N[C@H]1CN2CCC1CC2)C(Cc1ccc(OCc2c(Cl)cccc2Cl)cc1)NC(=O)C(c1ccccc1)C1CCCCC1 (single isomer, unassigned) [M-1548 #1] | 4 µM |
| O=C(N[C@H]1CN2CCC1CC2)C(Cc1ccc(OCc2c(Cl)cccc2Cl)cc1)NC(=O)C(c1ccccc1)C1CCCCC1 (single isomer, unassigned) [M-1548 #2] | 13 µM |
| CC1(C)CC(NC(=O)C(NC(=O)c2ccccn2)C2Cc3ccccc3C2)CC(C)(C)N1 (stereo not drawn) [Analog M-1354, Pic-Igl-Atmp] | > 60 µM |
| CC1(C)CC(NC(=O)C(NC(=O)c2ccc(B(O)O)cc2)C2Cc3ccccc3C2)CC(C)(C)N1 (stereo not drawn) [Analog M-1374, Bbz-Igl-Atmp] | > 60 µM |
| COC(=O)CN1C(C)CN(C(=O)C(Cc2ccc(F)cc2)NC(=O)C=Cc2c(F)c(F)c(F)c(F)c2F)CC1C (stereo not drawn) [Analog M-1432, F5c-PFF-Dmmp] | 18 µM |
| CC1(C)CC(NC(=O)C(Cc2ccc(OCc3c(Cl)cccc3Cl)cc2)NC(=O)CCCCC2SCC3NC(=O)NC32)CC(C)(C)N1 (stereo not drawn) [Analog M-1436, Biot-OC2Y-Atmp] | > 60 µM |
| CC1(C)CC(NC(=O)C(Cc2ccc(C#N)cc2)NC(=O)CCCc2c[nH]c3ccccc23)CC(C)(C)N1 (stereo not drawn) [Analog M-1476, 3Ibu-PCNF-Atmp] | > 60 µM |
| CCCCCCC(O)CC=CCCCCCCCC(=O)NC(Cc1ccc(C#N)cc1)C(=O)NC1CC(C)(C)NC(C)(C)C1 (stereo not drawn) [Analog M-1478, Rio-PCNF-Atmp] | 14 µM |
| CC1(C)CC(NC(=O)C(Cc2ccc(C#N)cc2)NC(=O)COc2c(F)c(F)c(F)c(F)c2F)CC(C)(C)N1 (stereo not drawn) [Analog M-1488, F5po-PCNF-Atmp] | > 60 µM |
| CC1(C)CC(NC(=O)C(Cc2ccc(C#N)cc2)NC(=O)c2c(F)c(F)c(F)c(F)c2F)CC(C)(C)N1 (stereo not drawn) [Analog M-1490, F5bz-PCNF-Atmp] | > 60 µM |
| CC1(C)CC(NC(=O)[C@H](Cc2ccc(C#N)cc2)NC(=O)CCCc2ccc(N(CCCl)CCCl)cc2)CC(C)(C)N1 [Analog M-1500, Chl-PCNF-Atmp] | 25 µM |
| CC1(C)CC(NC(=O)C(Cc2ccc(C#N)cc2)NC(=O)C=Cc2cc(F)cc(F)c2F)CC(C)(C)N1 (stereo not drawn) [Analog M-1504, F3c-PCNF-Atmp] | > 60 µM |
| Cc1ccc(CSC(C)(C)C(NC(=O)C(C2CCCCC2)C2CCCCC2)C(=O)NC2CC(C)(C)NC(C)(C)C2)cc1 (stereo not drawn) [Analog M-1514, Dca-Pen(Mbzl)-Atmp] | 7.3 µM |
| CC1(C)CC(NC(=O)[C@H](Cc2ccc(C#N)cc2)NC(=O)C(C2CCCCC2)C2CCCCC2)CC(C)(C)N1 [Analog M-1516, Dca-PCNF-Atmp] | 11 µM |
| CC1(C)CC(NC(=O)[C@H](Cc2ccc(C#N)cc2)NC(=O)c2cnccn2)CC(C)(C)N1 [Analog M-1524, 2Pyz-PCNF-Atmp] | > 60 µM |
| O=C(/C=C/c1c(F)c(F)c(F)c(F)c1F)N[C@@H](Cc1ccc(OCc2c(Cl)cccc2Cl)cc1)C(=O)N1CCN(C/C=C/c2ccccc2)CC1 [Analog M-1564, F5c-OC2Y-tCip] | 4 µM |
| CC1(C)CC(NC(=O)[C@H](Cc2ccc(OCc3c(Cl)cccc3Cl)cc2)NC(=O)c2ccc(N)nc2)CC(C)(C)N1 [Analog M-1596, 6Ani-OC2Y-Atmp] | > 60 µM |
| O=C(/C=C/c1c(F)c(F)c(F)c(F)c1F)N[C@@H](Cc1ccc(OCc2c(Cl)cccc2Cl)cc1)C(=O)N1CCCN(Cc2ccccc2)CC1 [Analog M-1606, F5c-OC2Y-Bhp] | 17 µM |
| CC(=O)Nc1nc(C)c(S(=O)(=O)N[C@@H](Cc2ccc(OCc3c(Cl)cccc3Cl)cc2)C(=O)NC2CC(C)(C)NC(C)(C)C2)s1 [Analog M-1628, Amts-OC2Y-Atmp] | 45 µM |
| O=C(/C=C/c1c(F)c(F)c(F)c(F)c1F)N[C@@H](Cc1ccc(OCc2c(Cl)cccc2Cl)cc1)C(=O)NCCCn1ccnc1 [Analog M-1642, F5c-OC2Y-Apia] | 42 µM |
| CC1(C)CC(NC(=O)C(Cc2ccc(OCc3c(Cl)cccc3Cl)cc2)NC(=O)C=Cc2ccccc2Cl)CC(C)(C)N1 (stereo not drawn) [Analog M-1652, 2Ccn-OC2Y-Atmp] | 4.1 µM |
| O=C(N[C@@H](Cc1ccc(OCc2c(Cl)cccc2Cl)cc1)C(=O)N1CCN(C/C=C/c2ccccc2)CC1)C(=Cc1ccccc1)c1ccccc1 [Analog M-1654, Pcn-OC2Y-tCip] | > 60 µM |
| O=C(CCCC[C@@H]1SC[C@@H]2NC(=O)N[C@@H]21)N[C@@H](Cc1ccc(OCc2c(Cl)cccc2Cl)cc1)C(=O)N1CCN(C/C=C/c2ccccc2)CC1 [Analog M-1656, Biot-OC2Y-tCip] | 5.5 µM |
| CN1CCN(CCCNC(=O)[C@H](Cc2ccc(OCc3c(Cl)cccc3Cl)cc2)NC(=O)C(=Cc2ccccc2)c2ccccc2)CC1 [Analog M-1658, Pcn-OC2Y-Amp] | 10 µM |
| O=C(N[C@@H](Cc1ccc(OCc2c(Cl)cccc2Cl)cc1)C(=O)NC1CCN(Cc2ccccc2)CC1)C(=Cc1ccccc1)c1ccccc1 [Analog M-1660, Pcn-OC2Y-Abzp] | 31 µM |
| CC1CN(C(=O)C(Cc2ccc(OCc3c(Cl)cccc3Cl)cc2)NC(=O)C(=Cc2ccccc2)c2ccccc2)CC(C)N1Cc1ccccc1 (stereo not drawn) [Analog M-1662, Pcn-OC2Y-cDmbp] | 20 µM |
| CC1CN(C(=O)C(Cc2ccc(OCc3c(Cl)cccc3Cl)cc2)NC(=O)C2CCn3c(C(=O)c4ccccc4)ccc32)CC(C)N1Cc1ccccc1 (stereo not drawn) [Analog M-1664, Ktlc-OC2Y-cDmbp] | > 60 µM |
| O=C(c1ccccc1)c1ccc2n1CCC2C(=O)N[C@@H](Cc1ccc(OCc2c(Cl)cccc2Cl)cc1)C(=O)N1CCN(C/C=C/c2ccccc2)CC1 (stereo partly drawn) [Analog M-1666, Ktlc-OC2Y-tCip] | > 60 µM |

same assay, conditions: ED50 for killing of SCLC strain SHP-77 in vitro, 4 days, 0 = no detectable activity, read-out: SHP-77 In vitro IC50

| SMILES | IC50 |
| --- | --- |
| CC1(C)CC(NC(=O)C(Cc2ccc(OP(=O)(O)OCc3ccccc3)cc2)NC(=O)C=Cc2c(F)c(F)c(F)c(F)c2F)CC(C)(C)N1 (stereo not drawn) [Analog M-1080, F5c-OBPY-Atmp] | > 60 µM |
| CC1(C)CC(NC(=O)C(Cc2c[nH]c3ccccc23)NC(=O)C(N)CCC(=O)O)CC(C)(C)N1 (stereo not drawn) [Analog M-1120, Glu-Trp-Atmp] | > 60 µM |
| CC1(C)CC(NC(=O)C(Cc2ccc(F)cc2)NC(=O)C=Cc2c(F)c(F)c(F)c(F)c2F)CC(C)(C)N1 (stereo not drawn) [Analog M-1140, F5c-PFF-Atmp] | 15 µM |
| CC1(C)CC(NC(=O)C(Cc2ccc(I)cc2)NC(=O)C=Cc2c(F)c(F)c(F)c(F)c2F)CC(C)(C)N1 (stereo not drawn) [Analog M-1142, F5c-PIF-Atmp] | 7.2 µM |
| CC1(C)CC(NC(=O)C(Cc2ccc(C(F)(F)F)cc2)NC(=O)C=Cc2c(F)c(F)c(F)c(F)c2F)CC(C)(C)N1 (stereo not drawn) [Analog M-1146, F5c-F3MF-Atmp] | 12 µM |
| CN(C(=O)C=Cc1c(F)c(F)c(F)c(F)c1F)C(Cc1ccccc1)C(=O)NC1CC(C)(C)NC(C)(C)C1 (stereo not drawn) [Analog M-1148, F5c-NMF-Atmp] | 15.5 µM |
| CC1(C)CC(NC(=O)C(NC(=O)C=Cc2c(F)c(F)c(F)c(F)c2F)C(c2ccccc2)c2ccccc2)CC(C)(C)N1 (stereo not drawn) [Analog M-1150, F5c-Dip-Atmp] | 5 µM |
| CC1(C)CC(NC(=O)C(Cc2ccc(F)cc2)NC(=O)C=Cc2ccoc2)CC(C)(C)N1 (stereo not drawn) [Analog M-1152, 3-Fa-PFF-Atmp] | > 60 µM |
| CN1CCN(C(=O)C(Cc2ccc(F)cc2)NC(=O)C=Cc2c(F)c(F)c(F)c(F)c2F)CC1 (stereo not drawn) [Analog M-1158, F5c-PFF-Mpz] | 28 µM |
| CC1CN(C(=O)C(Cc2ccc(F)cc2)NC(=O)C=Cc2c(F)c(F)c(F)c(F)c2F)CC(C)N1 (stereo not drawn) [Analog M-1160, F5c-PFF-Dmpz] | 24 µM |
| O=C(C=Cc1c(F)c(F)c(F)c(F)c1F)NC(Cc1ccc(F)cc1)C(=O)N1CCN(c2ncccn2)CC1 (stereo not drawn) [Analog M-1162, F5c-PFF-Pmpz] | 15 µM |
| O=C(C=Cc1c(F)c(F)c(F)c(F)c1F)NC(Cc1ccc(F)cc1)C(=O)N1CCN(c2ccccn2)CC1 (stereo not drawn) [Analog M-1164, F5c-PFF-Pypz] | 14 µM |
| CC1(C)CC(NC(=O)C(CCc2ccccc2)NC(=O)C=Cc2c(F)c(F)c(F)c(F)c2F)CC(C)(C)N1 (stereo not drawn) [Analog M-1176, F5c-hPhe-Atmp] | 14 µM |
| CC1(C)CC(NC(=O)C(Cc2ccccc2)NC(=O)C=Cc2c(F)c(F)c(F)c(F)c2F)CC(C)(C)N1 (stereo not drawn) [Analog M-1178, F5c-Phe-Atmp] | 15 µM |
| O=C(C=Cc1c(F)c(F)c(F)c(F)c1F)NC(Cc1c(F)c(F)c(F)c(F)c1F)C(=O)NC1CCN(Cc2ccccc2)CC1 (stereo not drawn) [Analog M-1182, F5c-F5F-Abzp] | 19.5 µM |
| CC1CN(C(=O)C(Cc2c(F)c(F)c(F)c(F)c2F)NC(=O)C=Cc2c(F)c(F)c(F)c(F)c2F)CC(C)N1 (stereo not drawn) [Analog M-1186, F5c-F5F-Dmpz] | 11 µM |
| O=C(C=Cc1c(F)c(F)c(F)c(F)c1F)NC(Cc1ccc(F)cc1)C(=O)N1CCN(C(c2ccccc2)c2ccc(Cl)cc2)CC1 (stereo not drawn) [Analog M-1202, F5c-PFF-Cbp] | 30 µM |
| O=C(C=Cc1cccnc1)NC(Cc1ccc2ccccc2c1)C(=O)N1CCN(C(c2ccccc2)c2ccc(Cl)cc2)CC1 (stereo not drawn) [Analog M-1204, Pya-Nal-Cbp] | 7.5 µM |
| O=C(C=Cc1c(F)c(F)c(F)c(F)c1F)NC(Cc1ccc(F)cc1)C(=O)N1CCN(c2ccc(Cl)cc2)CC1 (stereo not drawn) [Analog M-1208, F5c-PFF-Cpp] | 30 µM |
| O=C(C=Cc1cccnc1)NC(Cc1ccc(F)cc1)C(=O)N1CCN(c2ccc(Cl)cc2)CC1 (stereo not drawn) [Analog M-1212, Pya-PFF-Cpp] | 10 µM |
| O=C(C=Cc1c(F)c(F)c(F)c(F)c1F)NC1(C(=O)N(Cc2ccccn2)Cc2ccccn2)Cc2ccccc2C1 [Analog M-1218, F5c-Aic-Dpic] | 14 µM |
| O=C(C=Cc1c(F)c(F)c(F)c(F)c1F)NC(Cc1ccc(I)cc1)C(=O)N1CCN(c2ccccn2)CC1 (stereo not drawn) [Analog M-1248, F5c-PIF-Pypz] | 13 µM |
| O=C(C=Cc1c(F)c(F)c(F)c(F)c1F)NC(Cc1ccc2ccccc2c1)C(=O)N1CCC(N2CCCCC2)CC1 (stereo not drawn) [Analog M-1250, F5c-Nal-Pipp] | 7.6 µM |
| O=C(C=Cc1cc(C(F)(F)F)cc(C(F)(F)F)c1)NC(Cc1ccc(I)cc1)C(=O)N1CCN(c2ccccn2)CC1 (stereo not drawn) [Analog M-1252, Tf2c-PIF-Pypz] | > 60 µM |
| CC1CN(C(=O)C(Cc2ccc(I)cc2)NC(=O)C=Cc2c(F)c(F)c(F)c(F)c2F)CC(C)N1 (stereo not drawn) [Analog M-1254, F5c-PIF-Dmpz] | 10 µM |
| O=C(C=Cc1c(F)c(F)c(F)c(F)c1F)NC(Cc1ccc(I)cc1)C(=O)N(Cc1ccccn1)Cc1ccccn1 (stereo not drawn) [Analog M-1256, F5c-PIF-Dpic] | 13 µM |
